# Values of other authors in US5346895A, “Chromans and thiochromans with heteroarylethynyl substituents at the 7-position having retinoid-like biological activity” (Allergan, Inc., priority 1993, dated 1994).
# Tested on: ornithine decarboxylase (ODC), TPA induced ODC activity
# Conditions: result in words, retinoic acid, background knowledge
smiles,measurement,value
CC1=C(/C=C/C(C)=C/C=C/C(C)=C/C(=O)O)C(C)(C)CCC1 [Retinoic acid],inhibition of induction of ODC activity by TPA,inhibits this induction of ODC activity by TPA
